In article PMC7168207, “Dibasic Derivatives of Phenylcarbamic Acid as Prospective Antibacterial Agents Interacting with Cytoplasmic Membrane” (Antibiotics, 2020):
Marks after values point to notes of the source that are not given here.

Experiments:
[1] = test system: VRE 368; assay: time-kill study; assay type: cell-based, Enterococcus faecalis; conditions: VRE2
From the text: (§1) Time-kill studies are used to evaluate the dynamics of antibacterial activity. As mentioned above, a pre-test to determine minimum bactericidal concentration (MBC) by sub-cultivation of aliquots on agar was made (see Section 3.4). […] Time-kill studies were made with methicillin-susceptible S. aureus ATCC 29213 and methicillin-resistant MRSA 63718, vancomycin-susceptible E. faecalis ATCC 29212, and all three VRE isolates. Vancomycin was used as a control (Table 6).
(§2) The method of time-kill curves was used to study the bactericidal effect of selected compounds. […] The experiment was performed with S. aureus ATCC 29213, MRSA 63718, E. faecalis ATCC 29212, and all VRE isolates. […] The tubes were inoculated by bacterial inoculum in the exponential phase of growth to get a final concentration of 7.5 × 10^6 CFU/mL. The tubes were incubated statically at 37 °C. Immediately after inoculation and after 4, 6, 8, and 24 h, 100 µL of the sample was serially diluted (1:10) in PBS. Then, 2 × 20 µL from each dilution were put onto a Mueller–Hinton agar plate and cultivated at 37 °C for 24 h. After incubation, CFUs of dilutions containing 5–50 colonies were counted. Results were expressed as a decrease of log10(CFU) in each time compared to the starting inoculum. Bactericidal effect is defined as a −3log decrease of CFU/mL compared to the growth control in time 0. The test was made in duplicate on two separate occasions, and the results were averaged. The growth curves with error bars are shown in Figures S1 and S2 in Supplementary Materials.

[2] = test system: VRE 725B; assay: time-kill study; assay type: cell-based, Enterococcus faecalis; conditions: VRE3
From the text: as §1, §2

[3] = test system: MRSA 63718; assay: synergy with antibiotics (FIC index, checkerboard); assay type: cell-based, Staphylococcus aureus; conditions: in the combination of that line
From the text: (§3) Representatives from various classes were chosen in order to study the potential difference in synergistic activity according to the diverse mechanisms of action and resistance of these drugs. The method of minimal fractional inhibitory concentration (FIC) index (FICI) in a microtitration plate was used. FICI ≤ 0.5 means synergy; 0.5 < FICI < 1 means additivity; 1 ≤ FICI < 4 means indifference; and FICI ≥ 4 means antagonism.
(§4) For synergy effect study, a method of fractional inhibitory concentration was used. […] Raw H was used for the evaluation of MIC(A); column 12 was used for evaluation of MIC(B). The plate was inoculated by the bacterial suspension to reach final concentration of 5 × 10^5 CFU/mL in the wells. The fractional inhibitory concentration (FIC) index was calculated using the concentrations in the first nonturbid (clear) well found in each row and column along the turbidity/nonturbidity interface. To interpret the combined effect, the lowest FICI was used. A ΣFIC ≤ 0.5 means synergy; 0.5 < ΣFIC < 1 means additivity; 1 ≤ ΣFIC < 4 means indifference; and ΣFIC ≥ 4 means antagonism. The tests were made in duplicate, and the results were averaged.

[4] = test system: MRSA SA 3202; assay: synergy with antibiotics (FIC index, checkerboard); assay type: cell-based, Staphylococcus aureus; conditions: in the combination of that line
From the text: as §3, §4

Row | SMILES | Log10 Difference in CFU/mL from Inoculum ([1]; 1 × MIC, 4 h) [log10 CFU/mL] | Log10 Difference in CFU/mL from Inoculum ([1]; 1 × MIC, 6 h) [log10 CFU/mL] | Log10 Difference in CFU/mL from Inoculum ([1]; 1 × MIC, 8 h) [log10 CFU/mL] | Log10 Difference in CFU/mL from Inoculum ([1]; 1 × MIC, 24 h) [log10 CFU/mL] | Log10 Difference in CFU/mL from Inoculum ([1]; 2 × MIC, 4 h) [log10 CFU/mL] | Log10 Difference in CFU/mL from Inoculum ([1]; 2 × MIC, 6 h) [log10 CFU/mL] | Log10 Difference in CFU/mL from Inoculum ([1]; 2 × MIC, 8 h) [log10 CFU/mL] | Log10 Difference in CFU/mL from Inoculum ([1]; 2 × MIC, 24 h) [log10 CFU/mL] | Log10 Difference in CFU/mL from Inoculum ([1]; 4 × MIC, 4 h) | Log10 Difference in CFU/mL from Inoculum ([1]; 4 × MIC, 6 h) | Log10 Difference in CFU/mL from Inoculum ([1]; 4 × MIC, 8 h) [log10 CFU/mL] | Log10 Difference in CFU/mL from Inoculum ([1]; 4 × MIC, 24 h) [log10 CFU/mL] | Log10 Difference in CFU/mL from Inoculum ([2]; 1 × MIC, 4 h) [log10 CFU/mL] | Log10 Difference in CFU/mL from Inoculum ([2]; 1 × MIC, 6 h) [log10 CFU/mL] | Log10 Difference in CFU/mL from Inoculum ([2]; 1 × MIC, 8 h) [log10 CFU/mL] | Log10 Difference in CFU/mL from Inoculum ([2]; 1 × MIC, 24 h) [log10 CFU/mL] | Log10 Difference in CFU/mL from Inoculum ([2]; 2 × MIC, 4 h) [log10 CFU/mL] | Log10 Difference in CFU/mL from Inoculum ([2]; 2 × MIC, 6 h) [log10 CFU/mL] | Log10 Difference in CFU/mL from Inoculum ([2]; 2 × MIC, 8 h) [log10 CFU/mL] | Log10 Difference in CFU/mL from Inoculum ([2]; 2 × MIC, 24 h) [log10 CFU/mL] | also measured
1 | CCCCCCOc1cccc(NC(=O)OC(CN(CCC)CCC)CN2CCCC2)c1.Cl.Cl (centres unmarked) [1g, 1-[3-(dipropylammonio)-2-({[3-(hexyloxy)phenyl]carbamoyl}oxy)propyl]pyrrolidinium dichloride] | −2.00 | 0.29 | 0.25 | −0.16 | −2.34 | −1.97 | −1.01 | 0.32 | −2.72 * log10 CFU/mL | −2.71 * log10 CFU/mL | −2.45 | 0.97 | −0.09 | −0.29 | 0.19 | 2.41 | −0.75 | −0.74 | 0.56 | 0.43 | Log10 Difference in CFU/mL from Inoculum ([2]; 4 × MIC, 4 h): −1.85 log10 CFU/mL; Log10 Difference in CFU/mL from Inoculum ([2]; 4 × MIC, 6 h): −1.85 log10 CFU/mL; Log10 Difference in CFU/mL from Inoculum ([2]; 4 × MIC, 8 h): −2.15 log10 CFU/mL; Log10 Difference in CFU/mL from Inoculum ([2]; 4 × MIC, 24 h): −2.27 log10 CFU/mL; concentrations of the tested compound/clinically used antibiotic providing additivity or synergy [3]: 2 µg/mL
2 | CCCCCCCOc1cccc(NC(=O)OC(CN(CCC)CCC)CN2CCCC2)c1.Cl.Cl (centres unmarked) [1h, 1-[3-(Dipropylammonio)-2-({[3-(heptyloxy)phenyl]carbamoyl}oxy)propyl]pyrrolidinium dichloride] | 0.46 | 0.71 | 1.25 | 1.13 | 0.28 | 0.54 | −0.37 | 0.66 | −0.32 log10 CFU/mL | 0.05 log10 CFU/mL | 0.22 | 0.37 | −0.70 | 0.08 | −0.05 | 0.92 | −1.81 | −1.31 | −0.81 | 0.95 | Log10 Difference in CFU/mL from Inoculum ([2]; 4 × MIC, 4 h): −1.75 * log10 CFU/mL; Log10 Difference in CFU/mL from Inoculum ([2]; 4 × MIC, 6 h): −0.76 log10 CFU/mL; Log10 Difference in CFU/mL from Inoculum ([2]; 4 × MIC, 8 h): −0.76 log10 CFU/mL; Log10 Difference in CFU/mL from Inoculum ([2]; 4 × MIC, 24 h): 1.08 log10 CFU/mL; concentrations of the tested compound/clinically used antibiotic providing additivity or synergy [4]: 4 µg/mL
